In patent publication US20250388582A1, “NOVEL BICYCLIC HETEROARYL COMPOUND AND USE THEREOF” (ILDONG PHARMACEUTICAL CO., LTD., priority 2022, published 2025):

Molecular target: T1, human GST-PIKFYVE (Homo sapiens, UniProt Q9Y2I7)
T1 construct: GST; purchased Carna biosciences 11-118
Experiment: ADP-Glo kinase assay, enzyme inhibition activity against human PIKFYVE (Carna biosciences)
Type: biochemical
Settings: inhibitory activity at final compound concentration 10 nM; 1 hour at room temperature
Description: The enzyme inhibition activity values for the compounds according to Examples against human PIKFYVE were calculated using the ADP-Glo™ kinase assay service of Carna biosciences, Inc. The enzyme activity evaluation method provided by Carna biosciences Inc., is shown below.
Enzyme inhibition activity was evaluated by reacting the compounds according to Examples with human GST-PIKFYVE (11-118, Carna biosciences), which was purified using glutathione Sepharose chromatography. The reaction buffer used was composed of 50 mmol/L MOPS, 1 mmol/L DTT, and pH 7.2, and all reactions of the test distilled water were performed in the buffer.
Compounds were prepared as solutions in 100% DMSO as 100× stocks and adjusted to have a final sample concentration of 10 nM.
The substrate-enzyme reaction for PIKFYVE was performed by mixing 5 μL human GST-PIKFYVE, 5 μL compounds according to Examples, 5 μL enzyme substrate, and 5 μL purified ATP and reacting for 1 hour at room temperature. After the substrate-enzyme reaction, 20 μL ADP-Glo™ Reagent was added and reacted at room temperature for 40 minutes, then 40 μL Kinase Detection Reagent was added and reacted at room temperature for 40 minutes.
After completion of the reaction, the degree of enzyme activity inhibition was measured by luminescence. The fluorescence of the enzyme activity in the solvent control group […] was set to 100%, and the fluorescence of the enzyme activity in the solvent control group without compound treatment was set to 0%. The inhibitory activity of each compound according to Examples was calculated based on these values.

T1 sequence (Q9Y2I7 whole entry): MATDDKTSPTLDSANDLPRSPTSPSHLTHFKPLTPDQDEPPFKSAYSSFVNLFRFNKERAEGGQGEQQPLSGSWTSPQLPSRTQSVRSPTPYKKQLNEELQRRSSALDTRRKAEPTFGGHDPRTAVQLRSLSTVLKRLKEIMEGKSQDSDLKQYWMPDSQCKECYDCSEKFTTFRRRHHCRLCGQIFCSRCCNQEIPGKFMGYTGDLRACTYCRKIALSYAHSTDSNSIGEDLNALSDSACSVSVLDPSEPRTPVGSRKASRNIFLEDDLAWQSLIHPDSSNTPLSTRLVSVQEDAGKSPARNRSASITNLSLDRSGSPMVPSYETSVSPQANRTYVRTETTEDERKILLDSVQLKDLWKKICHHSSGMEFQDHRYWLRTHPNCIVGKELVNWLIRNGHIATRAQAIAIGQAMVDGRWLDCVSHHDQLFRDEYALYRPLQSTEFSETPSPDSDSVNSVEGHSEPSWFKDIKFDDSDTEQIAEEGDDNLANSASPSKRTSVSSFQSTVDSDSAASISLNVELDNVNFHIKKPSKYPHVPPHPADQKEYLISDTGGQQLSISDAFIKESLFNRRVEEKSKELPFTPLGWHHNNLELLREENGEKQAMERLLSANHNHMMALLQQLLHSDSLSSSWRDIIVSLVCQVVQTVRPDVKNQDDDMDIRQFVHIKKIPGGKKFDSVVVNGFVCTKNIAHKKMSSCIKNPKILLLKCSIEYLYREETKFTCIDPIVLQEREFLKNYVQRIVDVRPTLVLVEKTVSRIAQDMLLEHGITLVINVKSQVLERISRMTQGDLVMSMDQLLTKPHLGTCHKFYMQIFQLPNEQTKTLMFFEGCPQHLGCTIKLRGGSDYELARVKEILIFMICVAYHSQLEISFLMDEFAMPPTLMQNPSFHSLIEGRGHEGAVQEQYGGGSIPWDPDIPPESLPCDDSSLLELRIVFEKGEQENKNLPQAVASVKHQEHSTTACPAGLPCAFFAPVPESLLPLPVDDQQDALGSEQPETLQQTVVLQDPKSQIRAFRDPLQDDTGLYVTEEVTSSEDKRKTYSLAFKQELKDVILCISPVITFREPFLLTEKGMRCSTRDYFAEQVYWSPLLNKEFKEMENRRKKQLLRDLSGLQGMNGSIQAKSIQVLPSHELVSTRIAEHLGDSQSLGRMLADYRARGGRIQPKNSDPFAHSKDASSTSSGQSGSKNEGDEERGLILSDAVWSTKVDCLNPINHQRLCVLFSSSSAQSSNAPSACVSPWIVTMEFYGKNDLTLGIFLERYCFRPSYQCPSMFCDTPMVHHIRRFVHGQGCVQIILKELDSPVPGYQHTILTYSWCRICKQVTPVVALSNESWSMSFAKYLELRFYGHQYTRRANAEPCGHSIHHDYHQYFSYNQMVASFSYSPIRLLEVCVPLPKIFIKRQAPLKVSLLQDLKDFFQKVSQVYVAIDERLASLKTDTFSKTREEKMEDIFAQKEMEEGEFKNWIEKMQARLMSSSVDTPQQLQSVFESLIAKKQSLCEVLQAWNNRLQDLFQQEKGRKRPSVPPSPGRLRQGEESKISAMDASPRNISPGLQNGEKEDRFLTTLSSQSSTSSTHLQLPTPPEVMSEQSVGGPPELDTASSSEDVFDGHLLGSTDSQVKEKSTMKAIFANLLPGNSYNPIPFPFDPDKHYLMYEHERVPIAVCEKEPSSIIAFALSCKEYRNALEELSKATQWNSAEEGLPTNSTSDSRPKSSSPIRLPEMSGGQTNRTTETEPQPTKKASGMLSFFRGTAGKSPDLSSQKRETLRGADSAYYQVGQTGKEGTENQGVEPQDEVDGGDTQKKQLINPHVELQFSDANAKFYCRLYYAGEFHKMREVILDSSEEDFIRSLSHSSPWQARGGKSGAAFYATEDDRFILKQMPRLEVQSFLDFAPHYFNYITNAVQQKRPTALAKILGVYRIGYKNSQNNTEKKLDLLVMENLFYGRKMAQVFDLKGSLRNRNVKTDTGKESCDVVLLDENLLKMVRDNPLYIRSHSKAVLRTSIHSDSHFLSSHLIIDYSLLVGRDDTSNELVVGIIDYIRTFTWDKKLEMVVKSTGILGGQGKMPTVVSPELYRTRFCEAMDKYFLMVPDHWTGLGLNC

Row | SMILES | ADP-Glo kinase assay (%, 10 nM) [%]
1 | Cc1cccc(/C=N/Nc2nc(N3CCOCC3)nc3c2ncn3-c2nccs2)c1 [Example 117, (E)-4-(6-(2-(3-methylbenzylidene)hydrazinyl)-9-(thiazol-2-yl)-9H-purin-2-yl)morpholine] | 67.79
2 | Cc1cccc(-c2ccn(-c3nc(N4CCOCC4)nc4c3ncn4-c3cccc(OC4CC4)c3)n2)c1 [Example 138, 4-(9-(3-cyclopropoxyphenyl)-6-(3-(m-tolyl)-1H-pyrazol-1-yl)-9H-purin-2-yl)morpholine] | 64.23
3 | FC(F)(F)c1cccc(/C=N/n2cnc3c(Nc4ccncc4)nc(N4CCOCC4)nc32)c1 [Example 170, (E)-2-morpholino-N-(pyridin-4-yl)-9-((3-(trifluoromethyl)benzylidene)amino)-9H-purin-6-amine] | 79.60
4 | Cc1cccc(/C=N/n2cnc3c(-n4ccnc4)nc(N4CCOCC4)nc32)c1 [Example 176, (E)-N-(6-(1H-imidazol-1-yl)-2-morpholino-9H-purin-9-yl)-1-(m-tolyl)methanimine] | 56.91
5 | COc1ccc(Nc2nc(N3CCOCC3)nc3c2nc(C)n3/N=C/c2cccc(C)c2)cc1 [Example 205, (E)-N-(4-methoxyphenyl)-8-methyl-9-((3-methylbenzylidene)amino)-2-morpholino-9H-purin-6-amine] | 53.74
6 | Cc1ccc(/C=N/n2cnc3c(Nc4ccncc4)nc(N4CCOCC4)nc32)cc1 [Example 168, (E)-9-((4-methylbenzylidene)amino)-2-morpholino-N-(pyridin-4-yl)-9H-purin-6-amine] | 87.26
7 | COc1ccc(-n2c(C)nc3c(N/N=C/c4cccc(C)c4)nc(N4CCOCC4)nc32)cc1 [Example 161, (E)-4-(9-(4-methoxyphenyl)-8-methyl-6-(2-(3-methylbenzylidene)hydrazinyl)-9H-purin-2-yl)morpholine] | 79.72
8 | Cc1cccc(/C=N/n2cnc3c(Nc4cccnc4C)nc(N4CCOCC4)nc32)c1 [Example 194, (E)-9-((3-methylbenzylidene)amino)-N-(2-methylpyridin-3-yl)-2-morpholino-9H-purin-6-amine] | 61.38
9 | C(=N\n1cnc2c(Nc3ccncc3)nc(N3CCOCC3)nc21)/c1ccccc1 [Example 169, (E)-9-(benzylideneamino)-2-morpholino-N-(pyridin-4-yl)-9H-purin-6-amine] | 89.56
10 | Cc1cccc(/C=N/Nc2nc(N3CCOCC3)nc3c2nc(C)n3CC(=O)c2ccccc2)c1 [Example 156, (E)-2-(8-methyl-6-(2-(3-methylbenzylidene)hydrazinyl)-2-morpholino-9H-purin-9-yl)-1-phenylethan-1-one] | 65.90
11 | Cc1cccc(/C=N/n2cnc3c(Nc4cc(C)no4)nc(N4CCOCC4)nc32)c1 [Example 198, (E)-3-methyl-N-(9-((3-methylbenzylidene)amino)-2-morpholino-9H-purin-6-yl)isoxazol-5-amine] | 75.59
12 | COc1ccc(/C=N/n2cnc3c(Nc4ccncc4)nc(N4CCOCC4)nc32)cc1 [Example 173, (E)-9-((4-methoxybenzylidene)amino)-2-morpholino-N-(pyridin-4-yl)-9H-purin-6-amine] | 73.94
13 | Cc1cccc(Nc2nc(N3CCOCC3)nc3c2ncn3/N=C/c2cccnc2)c1 [Example 190, (E)-2-morpholino-9-((pyridin-3-ylmethylene)amino)-N-(m-tolyl)-9H-purin-6-amine] | 78.59
14 | Cc1cccc(/C=N/n2cnc3c(Nc4cc(C)n(C)n4)nc(N4CCOCC4)nc32)c1 [Example 188, (E)-N-(1,5-dimethyl-1H-pyrazol-3-yl)-9-((3-methylbenzylidene)amino)-2-morpholino-9H-purin-6-amine] | 65.93
15 | COc1cccc(Nc2nc(N3CCOCC3)nc3c2ncn3/N=C/c2cccc(C)c2)c1 [Example 184, (E)-N-(3-methoxyphenyl)-9-((3-methylbenzylidene)amino)-2-morpholino-9H-purin-6-amine] | 55.65
16 | Cc1cccc(/C=N/n2c(C)nc3c(Nc4ccncc4)nc(N4CCOCC4)nc32)c1 [Example 207, (E)-8-methyl-9-((3-methylbenzylidene)amino)-2-morpholino-N-(pyridin-4-yl)-9H-purin-6-amine] | 75.57

Row | SMILES | ADP-Glo kinase assay (%, 10 nM) [%]
17 | Cc1cccc(/C=N/Nc2nc(N3CCOCC3)nc3c2nc(C)n3-c2ccccn2)c1 [Example 164, (E)-4-(8-methyl-6-(2-(3-methylbenzylidene)hydrazinyl)-9-(pyridin-2-yl)-9H-purin-2-yl)morpholine] | 63.89
18 | Cc1cccc(/C=N/Nc2nc(N3CCOCC3)nc3c2nc(C)n3-c2cccc(F)c2)c1 [Example 162, (E)-4-(9-(3-fluorophenyl)-8-methyl-6-(2-(3-methylbenzylidene)hydrazinyl)-9H-purin-2-yl)morpholine] | 78.79
19 | Cc1cccc(/C=N/Nc2nc(N3CCOCC3)nc3nc(-c4cccnc4)ccc23)c1 [Example 216, (E)-4-(4-(2-(3-methylbenzylidene)hydrazinyl)-7-(pyridin-3-yl)pyrido[2,3-d]pyrimidin-2-yl)morpholine] | 63.00
20 | Cc1cccc(/C=N/Nc2nc(N3CCOCC3)nc3c2cnn3-c2cccnc2)c1 [Example 13, (E)-4-(4-(2-(3-methylbenzylidene)hydrazinyl)-1-(pyridin-3-yl)-1H-pyrazolo[3,4-d]pyrimidin-6-yl)morpholine] | 51.68
21 | Cc1cccc(/C=N/Nc2nc(N3CCOCC3)nc3c2nc(C)n3-c2cc(C)n(C)n2)c1 [Example 153, (E)-4-(9-(1,5-dimethyl-1H-pyrazol-3-yl)-8-methyl-6-(2-(3-methylbenzylidene)hydrazinyl)-9H-purin-2-yl)morpholine] | 63.58
22 | Cc1cccc(/C=N/Nc2nc(N3CCOCC3)nc3c2ncn3CC(=O)N2CCc3ccccc32)c1 [Example 29, (E)-1-(indolin-1-yl)-2-(6-(2-(3-methylbenzylidene)hydrazinyl)-2-morpholino-9H-purin-9-yl)ethan-1-one] | 55.15
23 | Cc1cccc(/C=N/Nc2nc(N3CCOCC3)nc3c2nc(C)n3CC(=O)c2cccnc2)c1 [Example 158, (E)-2-(8-methyl-6-(2-(3-methylbenzylidene)hydrazinyl)-2-morpholino-9H-purin-9-yl)-1-(pyridin-3-yl)ethan-1-one] | 63.93
24 | COc1cccc(-n2c(C)nc3c(N/N=C/c4cccc(C)c4)nc(N4CCOCC4)nc32)c1 [Example 160, (E)-4-(9-(3-methoxyphenyl)-8-methyl-6-(2-(3-methylbenzylidene)hydrazinyl)-9H-purin-2-yl)morpholine] | 77.75
25 | COc1cccc(/C=N/n2cnc3c(Nc4ccncc4)nc(N4CCOCC4)nc32)c1 [Example 172, (E)-9-((3-methoxybenzylidene)amino)-2-morpholino-N-(pyridin-4-yl)-9H-purin-6-amine] | 90.96
26 | COc1ccccc1Nc1nc(N2CCOCC2)nc2c1ncn2/N=C/c1cccc(C)c1 [Example 187, (E)-N-(2-methoxyphenyl)-9-((3-methylbenzylidene)amino)-2-morpholino-9H-purin-6-amine] | 52.07
27 | Cc1cccc(/C=N/Nc2nc(N3CCOCC3)nc3c2nc(C)n3-c2cccc(Cl)c2)c1 [Example 163, (E)-4-(9-(3-chlorophenyl)-8-methyl-6-(2-(3-methylbenzylidene)hydrazinyl)-9H-purin-2-yl)morpholine] | 54.29
28 | Cc1cccc(/C=N/Nc2nc(N3CCOCC3)nc3c2ncn3CC(=O)c2cnccn2)c1 [Example 54, (E)-2-(6-(2-(3-methylbenzylidene)hydrazinyl)-2-morpholino-9H-purin-9-yl)-1-(pyrazin-2-yl)ethan-1-one] | 58.10
29 | Cc1ccccc1/C=N/n1cnc2c(Nc3ccncc3)nc(N3CCOCC3)nc21 [Example 167, (E)-9-((2-methylbenzylidene)amino)-2-morpholino-N-(pyridin-4-yl)-9H-purin-6-amine] | 68.47
30 | COc1cccc(-c2ccn(-c3nc(N4CCOCC4)nc4c3ncn4CC(=O)c3ccccn3)n2)c1 [Example 68, 2-(6-(3-(3-methoxyphenyl)-1H-pyrazol-1-yl)-2-morpholino-9H-purin-9-yl)-1-(pyridin-2-yl)ethan-1-one] | 56.03
31 | COc1cccc(C(=O)Cn2cnc3c(N/N=C/c4cccc(C)c4)nc(N4CCOCC4)nc32)c1 [Example 38, (E)-1-(3-methoxyphenyl)-2-(6-(2-(3-methylbenzylidene)hydrazinyl)-2-morpholino-9H-purin-9-yl)ethan-1-one] | 82.96
32 | Cc1cccc(/C=N/Nc2nc(N3CCOCC3)nc3c2cnn3-c2ccncc2)c1 [Example 16, (E)-4-(4-(2-(3-methylbenzylidene)hydrazinyl)-1-(pyridin-4-yl)-1H-pyrazolo[3,4-d]pyrimidin-6-yl)morpholine] | 63.02
